Measurements: a melting point compilation (Tetko et al.; mined from patent text by program, amines drawn as free bases though some values may be those of a salt)

Row | Compound | melting point [°C]
1 | CC(C)(C)c1nc(-c2ccc3ccccc3c2)c(-c2ccncc2)[nH]1 | 218 to 220
2 | COc1ccc(-c2cc(CN3C(=O)c4ccccc4C3=O)c(=O)n(Cc3ccc(Cl)cc3)n2)cc1F | 212 to 214
3 | OCCSCc1ccc(CSCCO)cc1 | 90 to 92
4 | O=C(CCCCCl)NC1c2ccccc2CSc2ccccc21 (stereo unspecified) | 155 to 156
5 | COc1ccc(CCN(C)CCOc2ccc(NC(=O)c3cccc4c(=O)c5ccccc5[nH]c34)cc2)cc1 | 165
6 | CCC(=O)Oc1cccc2c1C(=O)c1c(OC(=O)CC)cccc1C2C(=O)CC | 125
7 | CSC(C[N+](=O)[O-])NCCSCc1cc(C)c(CN(C)C)s1 (stereo unspecified) | 69 to 71
8 | CCCCCN(C(=O)Nc1ccc(C(=O)O)cn1)c1ccc2c(c1)C(C)(C)CCC2(C)C | 175 to 180
9 | O=S(=O)(/C=C/c1ccc(Br)cc1)CS(=O)(=O)/C=C/c1ccc(Br)cc1 | 213 to 215
10 | Cc1cn(C)c2c(OCc3ccccc3)cc3c(c12)[C@H](CO)CN3C(=O)OC(C)(C)C | 138 to 140
11 | COc1ccc2c(c1)C(=O)NCc1c(-c3nc(C4CC4)no3)ncn1-2 | 245
12 | O=S(=O)(c1ccccc1)c1ccc(Br)cc1 | 95 to 99
13 | CS(=O)(=O)c1ccc(C2=C(c3cccc(F)c3)C(=O)OC23CC3)cc1 | 130 to 131
14 | CCC(CC)(CC(=O)Nc1cccc(/C=C/c2nc(C3CCCC3)cs2)c1)C(=O)O | 172 to 174
15 | CN(C)c1ccc2c(c1)CN1C(=Nc3cccnc3)SC[C@@H]1C2 | 138
16 | O=C(NC1CCN(Cc2ccccc2)CC1)c1ccc(Nc2c(C(=O)NC3CCN(Cc4ccccc4)CC3)cnc3cc(Cl)ccc23)cc1 | 230 to 232
17 | CN1CCc2c(sc3ncn(CCCl)c(=O)c23)C1 | 159 to 161
18 | CCN(CC)C(=O)c1cc(C(C)(C)C)ccc1-c1ccc(OC)cc1 | 89 to 92
19 | Nc1ccc2c(c1-c1ccccc1)CCC2 | 73 to 75
20 | COc1ccc(C=Cc2nnc(C(Cl)(Cl)Cl)o2)cc1 | 140 to 142
21 | Cc1cc(Cl)nc(SCC#N)n1 | 62 to 65
22 | Cc1cccc2c(=O)c(CS(C)(=O)=O)cn(C)c12 | 244 to 246
23 | CN(C)CC(=O)Nc1nc(-c2ccco2)c(C(=O)C2CCOCC2)s1 | 129 to 130
24 | CC(C)n1nc(-c2c(Sc3ccccc3)nc(N)nc2-c2ccccc2)ccc1=O | 214 to 215
25 | CCc1cc(=O)n(C)c2c1C(=O)CCC2 | 65 to 70
26 | CCN(CC)S(=O)(=O)c1cc(Cl)c(Cl)c(Cl)c1SCSC#N | 83 to 85

Row | Compound | melting point [°C]
27 | O=C1CCC(Cc2ccccc2)CC1 | 40 to 44
28 | Cc1nc(CC2(C)CCN(c3ccc(F)cc3)CC2)nc(C(=O)NCC(=O)O)c1O | 140 to 141
29 | CC1CC1n1cc(C(=O)O)c(=O)c2cc(F)c(N3CCC(N)C3)c(F)c21 (stereo unspecified) | 267 to 275
30 | C#Cc1ccnc(-c2cc(N)c(Br)cc2[N+](=O)[O-])c1 | 226 to 228
31 | CC(=O)OC1CCC2C3C(Sc4ccc(Br)cc4)C(=O)c4cc(O)ccc4C3CCC12C (stereo unspecified) | 190 to 192
32 | O=C1C2CCC(C(=O)N2Cc2ccccc2)N1Cc1ccccc1 | 168 to 170
33 | CCc1c(CC(=O)NCCCCCCNC(=O)Cc2ccc(OC)c(OC)c2CC)ccc(OC)c1OC | 169 to 172
34 | Nc1ccc(C2(c3ccc(F)cc3)OCCO2)cc1[N+](=O)[O-] | 105
35 | Cc1ccc2c(N3CCc4ccc(Cl)cc43)ncnc2c1 | 265
36 | Cc1cc(-c2cc(C(F)F)n3ncc(C(=O)O)c3n2)ccc1C(F)(F)F | 217
37 | COc1cc(CCCO)ccc1OCc1nc(-c2ccco2)oc1C | 99 to 100
38 | CCN(CC)S(=O)(=O)c1ccc(C=CC(C)(O)C(F)(F)F)cc1 (stereo unspecified) | 112 to 117
39 | O=C1N(Cc2ccc(NC=NO)nc2)c2ccccc2C12COc1cc3c(cc12)OCCO3 (stereo unspecified) | 231 to 232
40 | CCOC(=O)C(=CNc1ccc(OC)c(F)c1)C(=O)OCC | 63
41 | CCCN1CCN=C1c1ccccc1C(=O)c1ccc(Cl)cc1 | 131 to 133
42 | NCC(=O)NC(Cc1cccnc1)c1ccccc1 (stereo unspecified) | 93.5 to 94.5
43 | Cc1nc(N2CCN(CC3CC3(F)F)C2=O)sc1C(=O)NCc1cncs1 (stereo unspecified) | 182 to 184
44 | CCOC(=O)c1cc2cc(NC(=O)OC(C)(C)C)ccc2[nH]1 | 190 to 192
45 | COC(=O)/C=C(\Oc1ccc(F)cc1)C(=O)OC | 60 to 61
46 | COc1c(C)c(C)c(OC)c(CO)c1C | 121 to 122
47 | OC1CCNc2ncc(Br)cc21 (stereo unspecified) | 125 to 128
48 | COc1ccc2c(c1)CC(Nc1ccc(O)cc1)C2 (stereo unspecified) | 144 to 146
49 | CC1(c2ccccc2NC(c2c(Cl)cccc2Cl)C2CC2)OCCO1 (stereo unspecified) | 151
50 | O=S(=O)(NN=C(Cl)c1ccc(F)cc1Cl)c1ccccc1 | 133 to 135
51 | COc1cc(OC)c(S(C)(=O)=O)cc1C(=O)O | 292
52 | Nc1c(-c2ccc(C(F)(F)F)cc2F)nnn1Cc1ccc(O)cc1 | 168 to 170

Row | Compound | melting point [°C]
53 | CCc1cc(C#N)sc1-c1ccc2c(c1)C(C)(C)OC(=O)N2 | 160 to 162
54 | CN(c1ccccc1-c1ccc2cnc(Nc3ccc(N4CCN(CC(N)=O)CC4)c(F)c3)nn12)S(C)(=O)=O | 148
55 | CC(=O)Oc1ccccc1C(=O)Nc1ccc2oc(C)nc2c1 | 169 to 171
56 | COC(=O)C1=C(C)NC2=C(C(=O)OC2)C1c1ccc2c(c1)OCO2 (stereo unspecified) | 226 to 228
57 | CC(C)N1CCC(CNc2ccc(F)cc2C(=O)Nc2ccc(Cl)cn2)CC1 | 142 to 144
58 | N#CCSc1nc2ccc(Cl)nc2s1 | 112 to 114
59 | O=C(CCCl)NCc1ccc2ccn(C3CCN(CCc4ccc(F)cc4)CC3)c2c1 | 121 to 122
60 | C=C1C(NC(=O)C(F)(F)F)CC(OC)OC1C (stereo unspecified) | 160 to 162
61 | COc1ccc(C(=O)C2C(Cl)=CC=CC2(C)Cl)cc1Br (stereo unspecified) | 159
62 | CC(c1oc2ccccc2c(=O)c1-c1ccccc1)n1nc(-c2cn[nH]c2)c2c(N)ncnc21 (stereo unspecified) | 214 to 217
63 | O=C(O)C(CSc1ncccn1)CS(=O)(=O)c1ccc(-c2ccc(Cl)cc2)cc1 (stereo unspecified) | 166 to 168
64 | O=[N+]([O-])C12C3C4C1C1(Cl)C2C3C41[N+](=O)[O-] (stereo unspecified) | 145 to 147
65 | c1ccc(-c2ccc3c(CCN4CCCCC4)c(-c4ccccc4)[nH]c3c2)cc1 | 129 to 131
66 | Cc1nc(-n2ccnc(C)c2=O)sc1C(=O)NCc1ccccc1 | 186 to 187
67 | O=C(O)c1ccc(NCCCOc2ccccc2)cc1 | 159 to 162
68 | C=CCNC(=S)n1nc(Oc2ncc(C(F)(F)F)cc2Cl)cc1C | 46 to 48
69 | CCNC(=O)c1ccc(C#CCc2ccc3c(c2)C(C)(C)CCC3(C)C)cc1 | 128 to 129
70 | CC(C(=O)NC1Cc2ccccc2CC1O)c1ccccc1 (stereo unspecified) | 158
71 | CCN1Cn2c(=O)cc(-c3cccc(C(F)(F)F)c3)n3cnc(c23)C1=O | 278 to 280
72 | CC(=O)OS(=O)(=O)OC(C)=O | 228
73 | CCOc1cc(-c2cc(C(F)F)n3ncc(C(=O)Nc4cccc(S(=O)(=O)NC5CC5)c4)c3n2)ccc1C(F)(F)F | 213
74 | CC(=NO)c1ccc(NS(C)(=O)=O)c(Oc2ccc(F)cc2F)c1 | 150 to 151
75 | c1ccc(-c2cn(-c3ncc(C4CCCCC4)c4ccccc34)cn2)cc1 | 169 to 170
76 | COC(=O)C(C)(C)C(O)CCOc1cc(C)ccc1C (stereo unspecified) | 40.5 to 41
77 | COc1c(Cl)cc(C(=O)Nc2c(Cl)cncc2Cl)c2c3ccccc3n(CC3CCCCC3)c12 | 247 to 249
78 | CCc1cccc(CC)c1NC(=O)Nc1sc2cc(OC)c(OC)cc2c1-c1ccccc1Cl | 229 to 231

Row | Compound | melting point [°C]
79 | N#Cc1ccc(OCc2cccnc2)cc1OC(CCC(=O)O)c1cccc2c1OCO2 (racemic) | 181 to 183
80 | CS(=O)(=O)N1CCN(S(=O)(=O)C=Cc2ccccc2)C(C(=O)NO)C1 (stereo unspecified) | 94 to 99
81 | O=C(c1ccc(F)cc1Cl)N1Cc2cccn2Cc2ccccc21 | 110 to 112
82 | CCCCC1c2sccc2CCN1CCCOc1ccc([N+](=O)[O-])cc1 (stereo unspecified) | 72 to 75
83 | COc1ccc(S(=O)(=O)C[N+](=O)[O-])s1 | 70 to 71
84 | O=Cc1cc2ccc3ccc4ccccc4c3c2o1 | 169
85 | O=c1[nH]c(NCCSCc2nccs2)nnc1Cc1cccnc1 | 158 to 159
86 | Cc1sc(C(=O)NCc2ccc3c(c2)OCO3)cc1[N+](=O)[O-] | 181 to 183
87 | CC(C)C(C#N)C(=O)NC(N)=O (stereo unspecified) | 173 to 174
88 | CC(C)(C)[Si](C)(C)OC1CCN(S(=O)(=O)c2ccc(N3CCCCC3)cc2)C1=S (stereo unspecified) | 152 to 153
89 | CCOC(OCC)c1cc(NC(c2ccccc2)(c2ccccc2)c2ccccc2)c(F)c(Cc2ccc(F)cc2)n1 | 129 to 130
90 | Cc1nc(-c2ccc(C(=O)c3ccccc3)cc2)sc1C(=O)O | 217 to 218
91 | O=C1CCOc2c(O)cccc21 | 93 to 96
92 | Cc1nc(C)n(-c2cc(C)c3[nH]c(=O)ccc3c2)c1I | 242 to 245
93 | c1ccc2c(N3CCNCC3)n[nH]c2c1 | 139 to 150
94 | COc1ccc(CS(=O)(=O)c2cc3ccccc3oc2=O)cc1 | 194 to 195
95 | COc1cc(CCCC2SC(=O)NC2=O)ccc1OCc1csc(/C=C/c2ccccc2)n1 (stereo unspecified) | 161 to 162
96 | COc1ccc2cc(C(C)C(=O)ON3CCCCC3)ccc2c1 (stereo unspecified) | 95 to 97
97 | CCOC(=O)c1cc(Cl)c(-n2ncc(C)n2)c(Cl)c1 | 136 to 138
98 | O=C(O)c1ccc(-c2ccc(-c3ccc(Cl)cc3)s2)cc1 | 285 to 286
99 | COc1cc2c(cc1OC)[C@@H]1CCCC[C@@H]1N=C2c1ccc(N(S(=O)(=O)c2ccc([N+](=O)[O-])cc2)S(=O)(=O)c2ccc([N+](=O)[O-])cc2)cc1 (racemic) | 234
100 | O=S1(=O)NC=Nc2cc(C(F)(F)F)c(F)cc21 | 152
101 | COc1ccc2nc3cc(OC)c(=O)cc-3sc2c1 | 237 to 238
